Patent US20230003715A1, “AZAPODOPHYLLOTOXIN DERIVATIVES AND METHODS OF TREATING LYMPHOMA AND KIDNEY CANCER” (The Board of Trustees of the Leland Stanford Junior …, priority 2019, published 2023)

Legend:
murine RCC E28 cells = experiment: Proliferation of murine RCC E28 cells (viable cell count); type: cell-based; details: for sensitivity of MYC-driven RCC line to compound: 140 nM and 70 nM
Description: In addition, murine renal cell carcinoma E28 cell line was used in this study. These cells were maintained in DMEM supplemented with 10% (vol/vol) FBS, 1% glutamine, 1% sodium pyruvate, 1% non-essential amino acids, and Antibiotic-Antimycotic.
(§1) A 50 microliter volume of cells was taken from the culture medium and combined with an equal volume of 0.4% Trypan blue stain. Then, 10 microliters of this 1:1 mixture was pipetted onto a slide and placed into a hemocytometer for cell counting. The viable cell count was used for measuring cell proliferation in the sample.
Activity of compounds NSC750212, NSC750719, NSC750722, and NSC756089 (see, FIG. 1) was investigated on a MYC-driven RCC line derived from a transgenic mouse model using low dose ranges of 280 nM, 140 nM, and 70 nM. […] FIG. 2, illustrates the results of treatment of murine RCC E28 cells with, from left to right: DMSO and corresponding AZP derivatives at concentrations of 70 nM, 140 nM and 280 nM. Even at 70 nM, NSC750212 causes about 90% reduction of cell proliferation compared to the vehicle control (DMSO).

[1] = test system: human B-cell Burkitt's lymphoma P493-6; experiment: Proliferation of MYC-driven lymphoma line P493-6; type: cell-based; details: P-493
Description: (§2) Human T-cell acute lymphoblastic leukemias CCRF, DND-41, KOPT-K1, human B-cell Burkitt's lymphoma P493-6, and murine lymphoma 6780 were used in this study. Human and mouse lymphomas were all maintained in RPMI supplemented with 10% (vol/vol) FBS, 1% glutamine, 1% sodium pyruvate, 1% non-essential amino acids, and Antibiotic-Antimycotic. All cell culture reagents used were obtained from Gibco (Thermo Fisher Scientific Inc.).
as §1
(§3) Activity of exemplary compounds against lymphomas was also investigated. […] FIG. 4 illustrates proliferative responses of various human lymphoma lines, from left to right: CCRF, DND-41, KOPR, and MYC-driven lymphoma lines P493 and 6780, at doses of 70 nM, 140 nM, and 280 nM vs a control (DMSO). […] KOPT and P-493 still show a significant but much less suppression, at roughly 85%. At 140 nM, CCRF and 6780 show an increase in suppression at roughly 92% and 94%, respectively.

tubulin = experiment: Nano-fluidic proteomic immunoassay (NIA) of tubulin in treated tumors; type: in vivo, human
Experimental: NIA was performed using the ProteinSimple Nanopro 1000 machine. The final protein concentration loaded into each nano-fluidic capillary of the machine was 0.1 ug/uL. The primary antibody for Tubulin (Cell Signaling Technologies) was diluted 1:100. The primary antibody for HSP70 (Santa Cruz Biosciences) was diluted 1:500. The secondary anti-rabbit and anti-mouse HRP-conjugates were both diluted 1:100. Chemiluminescence signal was recorded after the addition of the detection reagent, which consists of a 1:1 ratio of luminol and peroxide. Analysis of the chemiluminescence data from NIA was performed via the ProteinSimple Compass software.
Fine needle aspirations (FNAs) are defined to be biopsies performed via the aspiration of the tumor using a needle of […] or smaller. Core biopsies are any biopsies done using a needle larger than […]. Techniques for performing FNAs and core biopsies are similar. The needle tip is plunged into the tumor and retracted, in a fast and repetitive motion, while applying suction at the needle tip. […]
To investigate if this mechanism is consistent in vivo, we used the Nano ImmunoAssay to analyze core biopsies and fine needle aspirates (FNA) of tumors during the course of treatment with NSC750212. […] There are no other charged isoforms of tubulin detected by NIA (FIG. 7, panel D).

CCRF (T lymphoblast) = experiment: Proliferation of lymphoma line CCRF; type: cell-based, human
Description: as §2, §1, §3

[2] = test system: human MYC-driven Burkitt Lymphoma line P493 xenografts; experiment: Human lymphoma P493 xenograft in NSG mice; type: in vivo; details: intratumoral treatment for a week, vs DMSO control
bovine tubulin = experiment: Tubulin Polymerization Assay (EMD Millipore); type: biochemical; details: compared to positive control Nocodazole and negative control Paclitaxel
Experimental: The Tubulin Polymerization Assay (EMD Millipore) was used to confer the mechanism of azapodophyllotoxin derivatives. The polymerization reaction was conducted in a 96-well plate. Paclitaxel was used as the non-tubulin-inhibiting negative control, and Nocodazole was used as the tubulin-inhibiting positive control. First, a solution of 99% pure bovine tubulin stock solution in 1× polymerization buffer (PB) containing 1 mM GTP was made. Second, a 1:9 mixture of each drug and control with PB-GTP solution was also prepared. In each well, 60 microliters of the first solution (99% tubulin solution in 1×PB and 1 mM GTP) was combined with 60 microliters of one of each of the prepared 1:9 drug to PB-GTP solutions. All solutions were prepared on ice prior to combining and placement into the spectrophotometer. Tubulin assembly was measured through turbidity variation (light scattering) in the spectrophotometer every 30 seconds at 350 nm (with shaking in between each reading) over the course of 90 minutes.
Given the structure of NSC750212 and computational docking studies of Azapodophyllotoxins in general, it has been stipulated that they may target tubulins. Using EMD Millipore Tubulin Polymerization Assay, NSC750212 was compared to a negative control, Paclitaxel, and a positive control, Nocodazole, to determine whether its mechanism is via the inhibition of tubulin polymerization.

human RCC A498 cell line = experiment: Proliferation / viability of human RCC A498 cell line; type: cell-based; details: for reduction in viability / suppression: 70 nM, 48 hours, human RCC A498; for SAR analysis: relative activity: RCC cell lines, substitution on C-4 phenyl ring
Description: as §1
To further expand the structure activity relationship (SAR), six additional AZP derivatives were synthesized: AR-02, AR-03, AR-038, AR-051, AR-061 and AR-065, with different substituents on the C-4 phenyl ring (FIG. 1). Having validated that exemplary AZP compounds show efficacy in our murine-derived RCC line, it was sought to determine if this finding could be relevant in human RCC line, A498. Exemplary compound NSC750212 and newly synthesized analogues were tested in A498 cell line (FIG. 3).

[3] = test system: human RCC A498 xenografts; experiment: Human RCC A498 xenograft in NSG mice; type: in vivo; details: intratumoral treatment for a week, vs DMSO control
monoglycerols = experiment: DESI-MSI of monoglycerols in treated RCC; type: in vivo, mouse; details: primary MYC-driven RCC, upon termination of treatment
Description: DESI-MSI functions by directing a pneumatically assisted solvent electrospray onto the surface of interest (Takats, Wiseman, Gologan, & Cooks, 2004). The electrosprayed solvent droplets dissolve certain chemical constituents off the surface investigated and also induce the formation of secondary charged-droplets that take off from the surface. These secondary droplets already contain constituents of the sample and produce molecular ions of the analytes upon evaporation in the atmospheric pressure interface of the mass spectrometer. This way, electrospray-like mass spectrometric information is obtained on the sample, featuring multiply charged ions and solvent adducts among other electrospray-specific spectral features.
Though we expected a complete depletion of metabolism upon tubulin inhibition by NSC750212, our DESI-MSI analyses uncover a more interesting mechanism. […] Monoglycerol metabolism has been implicated in cancer, due to the high need of cancer cells of energy and building blocks. […] As described herein, DESI-MSI is a valuable tool for use in uncovering the mechanism of action of exemplary azapodophyllotoxin derivatives.

murine lymphoma 6780 = experiment: Proliferation of MYC-driven lymphoma line 6780; type: cell-based
Description: as §2, §1, §3

[4] = test system: DND-41 (child T lymphoblastic leukemia); experiment: Proliferation of lymphoma line DND-41; type: cell-based, human
Description: as §2, §1, §3

KOPT-K1 (human T-ALL) = experiment: Proliferation of lymphoma line KOPT-K1; type: cell-based
Description: as §2, §1, §3

Which results are given for COc1cc(C2C3=C(COC3=O)N(CCO)c3cc4c(cc32)CCC4)cc(OC)c1OC (centres unmarked) [NSC750212]?
reduction of cell proliferation compared to the vehicle control (DMSO) (murine RCC E28 cells; 70 nM, 48 hours): about 90%; suppression of proliferation when compared to 70 nM (murine RCC E28 cells; 140 nM, 48 hours): two-fold; sensitivity of MYC-driven RCC line to compound (murine RCC E28 cells; 280 nM): very high sensitivity; efficacy at higher concentration than 140 nM (murine RCC E28 cells; 280 nM, 48 hours): no further efficacy; suppression of proliferation ([1]; 70 nM): roughly 85%; reduction in proliferation ([1]; 140 nM): over 90%; suppression of proliferation ([1]; 280 nM): ~98%; dose response ([1]; 70, 140, 280 nM): dose-dependent response; lowered levels of tubulin expression vs control (tubulin; core biopsy of tumor during treatment): at least two-fold; lowered levels of tubulin expression vs control (tubulin; fine needle aspirate (FNA) of tumor during treatment): at least two-fold; reduction in proliferation (CCRF (T lymphoblast); 70 nM, vs control (DMSO)): ~90%; suppression of proliferation (CCRF (T lymphoblast); 140 nM): roughly 92%; suppression of proliferation (CCRF (T lymphoblast); 280 nM): about 96%; dose response (CCRF (T lymphoblast); 70, 140, 280 nM): dose-dependent response; tumor burden [2]: significant reduction in tumor burden; inhibition of tubulin polymerization (turbidity at 350 nm over 90 minutes) (bovine tubulin): more efficacious than Nocodazole; reduction in viability / suppression (human RCC A498 cell line): 95%; SAR analysis: relative activity (human RCC A498 cell line): most active; tumor burden [3]: significant reduction in tumor burden; levels of monoglycerols compared to untreated RCC (monoglycerols): elevated levels of monoglycerols; reduction in proliferation (murine lymphoma 6780; 70 nM): ~90%; suppression of proliferation (murine lymphoma 6780; 140 nM): ~94%; suppression of proliferation (murine lymphoma 6780; 280 nM): maximal suppression; dose response (murine lymphoma 6780; 70, 140, 280 nM): dose-dependent response; maximal dose (maximally effective dose) [4]: 70 nM; reduction in proliferation ([4]; 70 nM): ~95%; change in suppression vs 70 nM ([4]; 140 nM): no dose response; suppression of proliferation (KOPT-K1 (human T-ALL); 70 nM): roughly 85%; suppression of proliferation (KOPT-K1 (human T-ALL); 140 nM): roughly 87%; reduction of proliferation (KOPT-K1 (human T-ALL); 280 nM): roughly 89%; dose response (KOPT-K1 (human T-ALL); 70, 140, 280 nM): dose-dependent response

How did the “sensitivity of MYC-driven RCC line to compound” value (murine RCC E28 cells; 280 nM) turn out when COc1cccc(C2C3=C(COC3=O)N(CCO)c3cc4c(cc32)OCCO4)c1 (centres unmarked) [NSC750722] was run?
Its value is “very high sensitivity”.

How did the “sensitivity of MYC-driven RCC line to compound” value (murine RCC E28 cells; 280 nM) turn out when COc1cccc(C2C3=C(COC3=O)N(CCO)c3cc4c(cc32)CCC4)c1 (centres unmarked) [NSC750719] was run?
Its value is “very high sensitivity”.

With O=C1OCC2=C1C(c1cccc(Br)c1)c1cc3c(cc1N2CCO)CCC3 (centres unmarked) [AR-038] as the compound, how does the “reduction in viability / suppression” value (human RCC A498 cell line) read?
The value was 90%.

And the “SAR analysis: relative activity” value (human RCC A498 cell line)?
The value was “promising activity”.
